The target of one test is T1, mGluR5 receptor (pig) (Sus scrofa, UniProt I3LUI7).
T1 construct: 450 μg protein from brain homogenate is incubated with 5 nM ^3[H]-MPEP; from tissue; host or cells: pig brain halves without medulla, cerebellum and pons
In words: [3H]-MPEP bond in the mGluR5 receptor bond assay (pig brain homogenate). It counts as binding. Particulars: 5 nM [3H]-MPEP; pig brain homogenate.

The next test concerns rats. Briefly: Formaline test in rats (phase 2, pain rate). It is filed as in vivo, rat. The settings on record: i.v. administration at 21.5 mg/kg, formaline test phase 2. As for the experimental part:
III. Formaline Test in Rats:
The formaline test (Dubuisson, D. and Dennis, S. G., 1977, Pain, 4, 161-174) represents a model for acute and chronic pain. A biphasic nociceptive reaction, which is recorded by observation of three clearly differentiable behavioural patterns, is induced by a single formaline injection into the dorsal side of a rear paw in freely mobile test animals. The reaction has two phases: Phase 1=Immediate reaction (duration up to 10 min; paw shaking, licking), Phase 2=Late reaction (after a rest phase; likewise, paw shaking, licking; duration up to 60 min). The 1st phase reflects a direct stimulation of the peripheral nocisensors with high spinal nociceptive input or glutamate release (acute pain phase); the 2nd phase reflects a spinal and peripheral hypersensitisation (chronic pain phase). In the investigations presented here, the chronic pain component (phase 2) was evaluated.
Formaline with a volume of 50 μl and a concentration of 5% is administered subcutaneously into the dorsal side of the right rear paw of each animal. […] The calculation of PR is performed on the basis of a numerical weighting (=in each case factor 1, 2, 3) of the observed forms of behaviour (corresponding behavioural score 1, 2, 3) and is calculated with the following formula: […]

T1 sequence (I3LUI7 19-1212): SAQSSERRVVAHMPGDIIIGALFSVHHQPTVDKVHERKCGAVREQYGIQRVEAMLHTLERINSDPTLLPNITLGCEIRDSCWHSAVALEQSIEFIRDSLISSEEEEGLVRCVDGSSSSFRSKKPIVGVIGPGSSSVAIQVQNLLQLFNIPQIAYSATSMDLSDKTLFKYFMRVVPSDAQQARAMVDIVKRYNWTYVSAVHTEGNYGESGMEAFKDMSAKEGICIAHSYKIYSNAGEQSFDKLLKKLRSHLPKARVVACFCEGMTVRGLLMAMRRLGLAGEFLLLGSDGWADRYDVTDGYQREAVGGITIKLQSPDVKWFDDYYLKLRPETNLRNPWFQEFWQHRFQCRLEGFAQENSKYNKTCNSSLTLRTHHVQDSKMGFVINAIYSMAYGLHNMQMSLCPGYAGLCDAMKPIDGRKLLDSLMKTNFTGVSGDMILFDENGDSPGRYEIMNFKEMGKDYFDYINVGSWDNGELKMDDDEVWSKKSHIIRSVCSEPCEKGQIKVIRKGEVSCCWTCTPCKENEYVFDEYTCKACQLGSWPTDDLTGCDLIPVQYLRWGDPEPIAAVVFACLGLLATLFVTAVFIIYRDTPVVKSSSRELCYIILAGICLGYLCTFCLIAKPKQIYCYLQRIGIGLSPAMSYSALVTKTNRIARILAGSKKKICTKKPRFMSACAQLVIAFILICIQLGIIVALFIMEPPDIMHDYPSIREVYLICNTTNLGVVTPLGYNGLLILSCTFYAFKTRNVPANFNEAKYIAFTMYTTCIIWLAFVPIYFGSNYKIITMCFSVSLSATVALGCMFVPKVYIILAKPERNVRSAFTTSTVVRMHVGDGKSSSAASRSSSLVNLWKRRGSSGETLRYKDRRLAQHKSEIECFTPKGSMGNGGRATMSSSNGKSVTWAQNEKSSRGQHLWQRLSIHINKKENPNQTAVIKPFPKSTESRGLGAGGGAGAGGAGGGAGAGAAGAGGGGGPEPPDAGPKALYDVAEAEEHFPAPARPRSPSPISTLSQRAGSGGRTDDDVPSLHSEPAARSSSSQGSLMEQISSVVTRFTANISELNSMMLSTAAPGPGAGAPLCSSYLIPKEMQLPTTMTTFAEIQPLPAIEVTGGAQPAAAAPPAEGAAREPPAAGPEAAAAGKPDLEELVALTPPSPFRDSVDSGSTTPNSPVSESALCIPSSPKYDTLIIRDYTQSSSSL

For `CN(CCc1ccccc1)C(=O)C#Cc1cccc(Cl)c1` [Example 1, 3-(3-chlorophenyl)-N-methyl-N-phenethylpropiolamide], the IC50 on mGluR5 receptor (pig) worked out at 12 nM. In addition, the “inhibition of the pain reaction” value with rats came out at 60%.

Usually IC50 stands for the midpoint of a concentration-inhibition curve.
